Results taken from ChEMBL document CHEMBL1201862, “PubChem BioAssay data set” (2004).
Calls of active or inactive are those of the source.

What was measured:
[1] = molecular target: T1, Calpain-2 catalytic subunit (Sus scrofa, UniProt P43367); assay: pig calpain II inhibitor potency, dose response, biochemical, fluorogenic peptide substrate (AID 1420); assay type: functional
T1 sequence (P43367 whole entry): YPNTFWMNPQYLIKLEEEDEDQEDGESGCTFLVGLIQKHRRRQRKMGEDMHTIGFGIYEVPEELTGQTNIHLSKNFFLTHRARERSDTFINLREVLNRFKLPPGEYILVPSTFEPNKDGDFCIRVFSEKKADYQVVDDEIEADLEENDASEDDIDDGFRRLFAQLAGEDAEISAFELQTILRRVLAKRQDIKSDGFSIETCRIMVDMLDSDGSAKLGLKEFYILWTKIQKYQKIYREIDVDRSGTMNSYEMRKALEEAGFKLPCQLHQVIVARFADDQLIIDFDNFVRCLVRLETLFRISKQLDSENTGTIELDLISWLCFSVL

[2] = Luminescence Cell-Based Dose Retest to Confirm Inhibitors of Cancer Stem Cells. [Related pubchem assays (depositor defined):AID2717, AID2721]; assay type: functional; conditions: Homo sapiens
[3] = molecular target: Heat shock protein HSP 90-alpha (Homo sapiens, UniProt P07900); assay type: functional, organism-based
[4] = molecular target: T2, Protein RecA (Mycobacterium tuberculosis, UniProt P9WHJ3); assay: Fluorescence Cell-Free Homogeneous Dose Retest to Identify Inhibitors of RecA-Intein Splicing Activity. [Related pubchem assays (depositor defined):AID2097, AID2223, AID489010, AID492950]; assay type: functional
T2 sequence (P9WHJ3 whole entry): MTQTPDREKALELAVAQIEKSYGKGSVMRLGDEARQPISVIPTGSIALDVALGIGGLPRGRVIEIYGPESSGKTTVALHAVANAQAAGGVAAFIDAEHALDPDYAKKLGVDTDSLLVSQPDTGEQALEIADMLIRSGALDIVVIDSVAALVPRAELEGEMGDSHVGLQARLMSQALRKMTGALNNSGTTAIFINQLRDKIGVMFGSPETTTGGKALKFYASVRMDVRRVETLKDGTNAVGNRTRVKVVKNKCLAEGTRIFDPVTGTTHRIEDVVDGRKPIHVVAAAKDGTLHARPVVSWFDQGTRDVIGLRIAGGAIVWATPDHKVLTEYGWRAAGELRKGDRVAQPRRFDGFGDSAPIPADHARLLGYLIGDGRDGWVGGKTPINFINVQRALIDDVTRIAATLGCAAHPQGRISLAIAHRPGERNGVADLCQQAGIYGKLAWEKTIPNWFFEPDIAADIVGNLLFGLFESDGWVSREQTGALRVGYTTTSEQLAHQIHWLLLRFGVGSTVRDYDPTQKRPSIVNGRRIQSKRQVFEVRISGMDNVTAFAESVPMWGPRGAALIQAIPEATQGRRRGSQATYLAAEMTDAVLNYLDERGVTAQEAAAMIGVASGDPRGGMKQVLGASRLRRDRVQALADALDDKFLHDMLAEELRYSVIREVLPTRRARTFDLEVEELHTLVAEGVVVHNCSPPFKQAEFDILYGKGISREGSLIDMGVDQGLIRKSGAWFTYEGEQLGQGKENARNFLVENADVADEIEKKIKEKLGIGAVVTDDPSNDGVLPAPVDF

[5] = molecular target: T3, Replicative DNA helicase DnaB (Mycobacterium tuberculosis, UniProt P9WMR3); assay: DnaB intein splicing inhibitors, dose response, biochemical, cell-free fluorescence (AID 449749); assay type: functional
T3 sequence (P9WMR3 whole entry): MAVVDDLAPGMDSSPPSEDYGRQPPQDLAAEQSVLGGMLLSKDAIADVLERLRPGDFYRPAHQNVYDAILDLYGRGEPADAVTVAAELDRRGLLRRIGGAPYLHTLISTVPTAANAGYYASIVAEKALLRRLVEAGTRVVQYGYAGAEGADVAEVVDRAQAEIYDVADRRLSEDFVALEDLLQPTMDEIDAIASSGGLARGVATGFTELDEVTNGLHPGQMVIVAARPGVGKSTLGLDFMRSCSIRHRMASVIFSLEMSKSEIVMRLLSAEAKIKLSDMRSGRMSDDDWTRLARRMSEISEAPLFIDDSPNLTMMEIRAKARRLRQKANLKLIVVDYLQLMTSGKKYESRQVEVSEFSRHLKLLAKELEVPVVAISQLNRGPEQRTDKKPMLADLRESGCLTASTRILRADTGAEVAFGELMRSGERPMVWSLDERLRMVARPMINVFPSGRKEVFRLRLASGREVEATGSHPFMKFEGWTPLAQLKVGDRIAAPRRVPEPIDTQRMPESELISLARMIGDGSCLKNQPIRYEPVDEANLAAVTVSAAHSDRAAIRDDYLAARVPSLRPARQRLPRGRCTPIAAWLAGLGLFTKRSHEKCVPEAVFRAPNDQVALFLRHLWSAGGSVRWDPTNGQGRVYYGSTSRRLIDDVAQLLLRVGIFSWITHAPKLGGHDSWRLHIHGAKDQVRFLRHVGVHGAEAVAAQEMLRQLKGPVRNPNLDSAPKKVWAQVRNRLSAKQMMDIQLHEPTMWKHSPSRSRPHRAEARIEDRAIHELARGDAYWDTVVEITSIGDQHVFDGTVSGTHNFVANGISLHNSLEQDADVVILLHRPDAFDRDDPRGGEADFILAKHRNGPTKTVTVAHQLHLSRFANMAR

[6] = molecular target: Cytochrome P450 2C9 (Homo sapiens, UniProt P11712)
[7] = molecular target: Cytochrome P450 2D6 (Homo sapiens, UniProt P10635);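 also: CYP2D6 member of a cytochrome P450 panel assay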
[8] = molecular target: Peroxisome proliferator-activated receptor gamma/Nuclear receptor coactivator 3 (Homo sapiens, UniProt P37231); assay: TR-FRET dose response biochemical High Throughput Screening assay for agonists of the steroid receptor coactivator 3 (SRC-3) recruitment by the peroxisome proliferator-activated receptor gamma (PPAR gamma): non-selective agonists. [Related pubchem assays: 1301 (Confirmation screen.), 1048 (Primary screen.)]; assay type: functional
[9] = molecular target: Peroxisome proliferator-activated receptor gamma/Nuclear receptor coactivator 1 (Homo sapiens, UniProt P37231); assay: TR-FRET dose response biochemical High Throughput Screening assay for agonists of the steroid receptor coactivator 1 (SRC-1) recruitment by the peroxisome proliferator-activated receptor gamma (PPAR gamma): non-selective agonists. [Related pubchem assays (depositor defined):AID1300, AID1808, AID504735, AID631]; assay type: protein assay
[10] = molecular target: Peroxisome proliferator-activated receptor gamma/Nuclear receptor coactivator 2 (Homo sapiens, UniProt P37231); assay: TR-FRET dose response biochemical High Throughput Screening assay for agonists of the steroid receptor coactivator 2 (SRC-2) recruitment by the peroxisome proliferator-activated receptor gamma (PPAR gamma): non-selective agonists. [Related pubchem assays: 1297, 1032 ]; assay type: functional
[11] = molecular target: Cytochrome P450 2C19 (Homo sapiens, UniProt P33261); assay: Cytochrome panel assay with activity outcomes. Panel member name: p450-cyp2c19 Compounds with AC50 equal or less than 10 uM are considered active; assay type: functional; conditions: read-out: AC50
[12] = molecular target: T4, Polyadenylate-binding protein 1 (Homo sapiens, UniProt P11940); assay: PABP1 MLLE–PAM2 binding inhibitor potency, dose response, biochemical, fluorescence polarization, FITC-PAM2 peptide (AID 602259); assay type: functional; conditions: read-out: IC50_Mean
[13] = molecular target: T4, Polyadenylate-binding protein 1; assay: PABP1 MLLE–PAM2 interaction inhibitors, dose response, miRNA deadenylation inhibitor project, biochemical, fluorescence polarization, Cy5-PAM2 peptide, secondary (AID 602260); assay type: functional; conditions: read-out: IC50_Mean
[14] = molecular target: T5, Cytochrome P450 1A2 (Homo sapiens, UniProt P05177);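 also: PubChem cytochrome P450 panel assay, CYP1A2 panel member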
T5 sequence (P05177 whole entry): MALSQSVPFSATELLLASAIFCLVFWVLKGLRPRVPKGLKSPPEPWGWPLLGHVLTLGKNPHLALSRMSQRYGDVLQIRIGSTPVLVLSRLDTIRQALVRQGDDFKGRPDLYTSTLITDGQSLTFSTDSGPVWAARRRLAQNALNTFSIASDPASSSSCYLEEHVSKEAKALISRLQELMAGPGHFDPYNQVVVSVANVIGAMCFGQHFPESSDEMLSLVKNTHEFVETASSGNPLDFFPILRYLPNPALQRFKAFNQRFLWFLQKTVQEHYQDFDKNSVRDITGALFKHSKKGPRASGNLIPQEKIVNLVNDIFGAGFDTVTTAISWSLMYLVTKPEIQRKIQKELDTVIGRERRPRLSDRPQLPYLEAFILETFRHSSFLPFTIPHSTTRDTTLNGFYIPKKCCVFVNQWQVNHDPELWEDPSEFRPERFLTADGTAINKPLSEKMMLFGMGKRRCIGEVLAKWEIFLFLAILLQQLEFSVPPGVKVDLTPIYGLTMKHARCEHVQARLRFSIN

[15] = molecular target: Nonstructural protein 1 (Influenza A virus, UniProt Q194T2); assay type: functional, Influenza A virus (A/California/07/2009(H1N1))
[16] = system: Streptococcus sp. 'group A'; assay: growth inhibition of control SK(-) GAS strain, dose response, counter-screen for streptokinase expression inhibitor project, luminescence, kanamycin, BacTiterGlo, confirmation (AID 1900); assay type: functional, organism-based
[17] = C. albicans growth with fluconazole, confirmation, fluorescence, retest (AID 2467); assay type: functional, cell-based
[18] = system: Streptococcus; assay: Group A Streptococcus viability loss, dose response, counter-screen for streptokinase expression inhibitor project, luminescence, BacTiterGlo (AID 1915); assay type: functional, organism-based;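 also: potency for reduction of bacterial viability or growth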
[19] = NIH-3T3 fibroblast cytotoxicity, dose response, cytotoxicity control, cell-based, fluorescence, Alamar Blue, secondary assay (AID 2327); assay type: functional;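 also: NIH-3T3 mouse fibroblasts cultured with fluconazole at 8 µg/mL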

Peroxisome proliferator-activated receptor gamma/Nuclear receptor coactivator 2, sequence (P37231 whole entry): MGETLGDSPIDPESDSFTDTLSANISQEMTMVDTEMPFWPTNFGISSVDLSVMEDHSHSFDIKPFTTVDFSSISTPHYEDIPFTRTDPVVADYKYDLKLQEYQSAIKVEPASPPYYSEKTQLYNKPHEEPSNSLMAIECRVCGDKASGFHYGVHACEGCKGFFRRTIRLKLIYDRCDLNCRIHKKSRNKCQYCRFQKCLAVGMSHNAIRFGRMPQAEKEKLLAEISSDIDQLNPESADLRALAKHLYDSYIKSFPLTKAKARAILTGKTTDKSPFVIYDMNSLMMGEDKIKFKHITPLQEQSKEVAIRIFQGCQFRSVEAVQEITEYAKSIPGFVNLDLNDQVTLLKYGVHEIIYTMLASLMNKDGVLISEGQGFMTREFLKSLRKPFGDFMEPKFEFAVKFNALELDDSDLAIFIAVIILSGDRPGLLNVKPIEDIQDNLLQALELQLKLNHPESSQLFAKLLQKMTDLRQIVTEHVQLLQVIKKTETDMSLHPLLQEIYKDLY
Peroxisome proliferator-activated receptor gamma/Nuclear receptor coactivator 2, sequence (Q15596 whole entry, further chain): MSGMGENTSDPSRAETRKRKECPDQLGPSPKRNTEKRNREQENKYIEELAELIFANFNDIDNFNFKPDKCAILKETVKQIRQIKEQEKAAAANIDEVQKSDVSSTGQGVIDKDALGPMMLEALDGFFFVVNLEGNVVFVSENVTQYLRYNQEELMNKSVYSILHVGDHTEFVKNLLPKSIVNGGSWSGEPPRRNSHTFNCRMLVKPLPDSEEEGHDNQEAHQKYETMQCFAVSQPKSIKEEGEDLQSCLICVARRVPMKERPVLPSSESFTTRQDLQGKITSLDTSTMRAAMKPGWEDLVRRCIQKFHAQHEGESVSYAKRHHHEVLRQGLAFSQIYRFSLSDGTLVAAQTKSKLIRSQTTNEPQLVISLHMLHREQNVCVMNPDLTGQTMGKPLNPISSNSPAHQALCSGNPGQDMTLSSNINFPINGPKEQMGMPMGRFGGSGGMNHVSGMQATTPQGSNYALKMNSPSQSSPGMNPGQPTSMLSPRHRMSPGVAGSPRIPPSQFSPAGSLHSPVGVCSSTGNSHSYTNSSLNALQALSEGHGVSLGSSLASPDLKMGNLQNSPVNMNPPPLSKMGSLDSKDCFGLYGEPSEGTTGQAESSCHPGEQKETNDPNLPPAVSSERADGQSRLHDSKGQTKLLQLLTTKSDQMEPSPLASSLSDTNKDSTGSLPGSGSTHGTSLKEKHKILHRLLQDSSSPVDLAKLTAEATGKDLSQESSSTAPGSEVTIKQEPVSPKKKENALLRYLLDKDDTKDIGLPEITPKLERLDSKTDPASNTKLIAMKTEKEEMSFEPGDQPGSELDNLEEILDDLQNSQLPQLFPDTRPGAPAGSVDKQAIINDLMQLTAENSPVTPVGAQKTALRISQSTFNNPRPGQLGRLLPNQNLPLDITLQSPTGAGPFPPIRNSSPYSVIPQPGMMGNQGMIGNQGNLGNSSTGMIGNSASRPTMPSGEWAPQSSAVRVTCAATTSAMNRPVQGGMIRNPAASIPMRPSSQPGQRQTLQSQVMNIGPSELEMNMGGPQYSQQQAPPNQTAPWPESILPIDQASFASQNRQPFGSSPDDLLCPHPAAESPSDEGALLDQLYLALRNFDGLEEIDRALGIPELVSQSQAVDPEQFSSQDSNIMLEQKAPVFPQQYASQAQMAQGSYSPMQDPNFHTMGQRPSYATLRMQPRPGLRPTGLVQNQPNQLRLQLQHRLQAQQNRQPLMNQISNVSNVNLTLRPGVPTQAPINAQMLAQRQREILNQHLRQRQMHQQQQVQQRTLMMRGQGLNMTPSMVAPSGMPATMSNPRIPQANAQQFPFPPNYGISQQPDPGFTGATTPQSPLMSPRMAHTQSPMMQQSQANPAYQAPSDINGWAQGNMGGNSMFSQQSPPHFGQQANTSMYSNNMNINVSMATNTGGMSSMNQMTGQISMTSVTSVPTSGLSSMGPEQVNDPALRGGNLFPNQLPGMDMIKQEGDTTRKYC
Peroxisome proliferator-activated receptor gamma/Nuclear receptor coactivator 3, sequence (P37231 whole entry): as the sequence (P37231 whole entry) above
Peroxisome proliferator-activated receptor gamma/Nuclear receptor coactivator 3, sequence (Q9Y6Q9 whole entry, further chain): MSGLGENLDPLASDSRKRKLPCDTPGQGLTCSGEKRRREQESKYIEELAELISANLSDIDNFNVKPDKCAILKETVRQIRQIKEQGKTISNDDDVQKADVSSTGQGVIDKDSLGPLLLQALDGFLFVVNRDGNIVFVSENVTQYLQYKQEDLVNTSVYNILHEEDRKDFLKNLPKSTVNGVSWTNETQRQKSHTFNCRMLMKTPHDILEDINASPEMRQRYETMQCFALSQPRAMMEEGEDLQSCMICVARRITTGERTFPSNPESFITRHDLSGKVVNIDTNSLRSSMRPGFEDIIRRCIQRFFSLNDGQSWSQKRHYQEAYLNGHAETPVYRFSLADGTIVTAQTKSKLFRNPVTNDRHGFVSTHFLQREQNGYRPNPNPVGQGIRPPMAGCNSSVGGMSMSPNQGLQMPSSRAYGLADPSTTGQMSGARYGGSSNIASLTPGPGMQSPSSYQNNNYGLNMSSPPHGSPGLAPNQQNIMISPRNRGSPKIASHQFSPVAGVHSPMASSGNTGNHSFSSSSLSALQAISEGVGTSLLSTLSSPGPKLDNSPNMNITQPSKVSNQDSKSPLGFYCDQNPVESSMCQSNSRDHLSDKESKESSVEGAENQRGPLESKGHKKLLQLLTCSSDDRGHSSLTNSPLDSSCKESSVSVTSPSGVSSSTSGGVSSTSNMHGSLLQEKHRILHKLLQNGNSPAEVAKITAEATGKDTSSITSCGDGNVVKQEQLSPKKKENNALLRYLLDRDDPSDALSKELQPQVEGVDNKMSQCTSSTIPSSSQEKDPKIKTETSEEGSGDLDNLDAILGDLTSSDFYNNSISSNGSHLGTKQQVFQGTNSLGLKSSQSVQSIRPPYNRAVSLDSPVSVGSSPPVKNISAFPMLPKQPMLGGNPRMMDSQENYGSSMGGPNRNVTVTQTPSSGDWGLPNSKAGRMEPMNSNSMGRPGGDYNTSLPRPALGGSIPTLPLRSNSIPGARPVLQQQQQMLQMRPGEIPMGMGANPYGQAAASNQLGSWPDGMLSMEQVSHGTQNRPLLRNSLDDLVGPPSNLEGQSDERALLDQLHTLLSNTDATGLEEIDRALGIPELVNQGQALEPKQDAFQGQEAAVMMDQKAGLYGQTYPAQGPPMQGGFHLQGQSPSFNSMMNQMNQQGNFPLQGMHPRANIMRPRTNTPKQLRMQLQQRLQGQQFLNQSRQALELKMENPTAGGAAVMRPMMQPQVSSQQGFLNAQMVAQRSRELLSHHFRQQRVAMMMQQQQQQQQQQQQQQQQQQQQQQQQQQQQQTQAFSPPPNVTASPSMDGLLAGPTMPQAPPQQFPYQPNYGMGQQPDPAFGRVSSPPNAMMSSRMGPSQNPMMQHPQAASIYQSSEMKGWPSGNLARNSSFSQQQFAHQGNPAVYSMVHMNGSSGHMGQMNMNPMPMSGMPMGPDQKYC
Cytochrome P450 2C9, sequence (P11712 whole entry): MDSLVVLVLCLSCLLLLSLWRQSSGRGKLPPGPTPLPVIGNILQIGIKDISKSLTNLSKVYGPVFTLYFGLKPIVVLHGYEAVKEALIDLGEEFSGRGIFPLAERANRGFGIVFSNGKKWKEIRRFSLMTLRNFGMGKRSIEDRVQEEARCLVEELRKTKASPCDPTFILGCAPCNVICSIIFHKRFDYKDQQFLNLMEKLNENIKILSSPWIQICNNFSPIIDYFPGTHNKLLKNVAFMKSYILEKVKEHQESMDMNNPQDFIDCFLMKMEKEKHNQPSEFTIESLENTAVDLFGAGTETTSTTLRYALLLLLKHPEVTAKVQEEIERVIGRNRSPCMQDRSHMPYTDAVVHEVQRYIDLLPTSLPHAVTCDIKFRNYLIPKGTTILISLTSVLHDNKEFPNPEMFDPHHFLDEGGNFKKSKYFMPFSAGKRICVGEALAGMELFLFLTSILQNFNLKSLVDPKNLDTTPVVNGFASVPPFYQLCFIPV
T4 sequence (P11940 whole entry): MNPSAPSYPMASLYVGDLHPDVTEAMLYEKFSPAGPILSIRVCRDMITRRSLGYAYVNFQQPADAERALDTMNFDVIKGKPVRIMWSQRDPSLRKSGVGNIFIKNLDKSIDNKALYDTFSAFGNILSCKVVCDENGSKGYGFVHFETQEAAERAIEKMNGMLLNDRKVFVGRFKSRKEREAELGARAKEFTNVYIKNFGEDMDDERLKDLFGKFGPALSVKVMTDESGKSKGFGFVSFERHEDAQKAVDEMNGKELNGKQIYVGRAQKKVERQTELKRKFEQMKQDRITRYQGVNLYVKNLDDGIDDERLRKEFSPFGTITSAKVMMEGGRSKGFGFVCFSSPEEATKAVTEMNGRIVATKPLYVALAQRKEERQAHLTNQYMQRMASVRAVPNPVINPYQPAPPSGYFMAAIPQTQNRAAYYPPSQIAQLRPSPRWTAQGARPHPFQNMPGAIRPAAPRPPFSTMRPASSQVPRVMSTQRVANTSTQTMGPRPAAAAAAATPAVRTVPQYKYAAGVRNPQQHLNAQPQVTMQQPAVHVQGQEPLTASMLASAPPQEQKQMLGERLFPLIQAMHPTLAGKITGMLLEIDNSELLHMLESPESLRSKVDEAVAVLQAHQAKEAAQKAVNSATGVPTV

O=C(Nc1nc(-c2ccc(Cl)cc2)cs1)C1CCCO1 (stereo unspecified)
IC50 [1]: 19.1 µM (not active)

Cc1cc(NC(=O)CSc2nnc(-c3ccncc3)n2N)ccc1Br
IC50 [1]: > 50 µM (not active)

COc1ccc2sc(-c3ccccc3OC)c(-c3ccc(O)cc3)c2c1
AC50 [2]: 4.27 µM (active) | AC50 [3]: 5.35 µM (active)

COc1ccc(NC(=O)c2ccc(=O)oc2)cc1
IC50 [1]: 11.5 µM (not active)

O=c1oc2cc(Oc3c([N+](=O)[O-])cc(C(F)(F)F)cc3[N+](=O)[O-])ccc2c2c1CCCC2
EC50 [4]: 1.55 µM (active) | AC50 [5]: > 380 µM (inactive) | AC50 [6]: inconclusive | AC50 [7]: 11.2 µM (inconclusive)

CCOc1ccc(N2C(=O)/C(=C\c3ccccc3OC)S(=O)(=O)C2c2cccc([N+](=O)[O-])c2)cc1 (stereo unspecified)
AC50 [3]: 26.2 µM (active)

Cc1ccc(OCCCn2c(=O)sc3ccccc32)cc1
AC50 [6]: inconclusive | AC50 [7]: 14.1 µM (inconclusive)

O=C(CCOc1ccccc1)Nc1ccc(S(=O)(=O)N2CCCC2)cc1
IC50 [1]: 26.4 µM (not active)

COCC(=O)n1nc(NCc2ccc(OC)cc2)nc1NCc1ccc(OC)cc1
AC50 [3]: 8.12 µM (active)

COc1ccc(CNC(=O)CSc2cc(=O)n(C)c3ccccc23)cc1
EC50 [8]: > 79.4 µM (not active) | EC50 [9]: > 79.4 µM (inactive) | EC50 [10]: > 79.4 µM (not active)

O=C(Nc1ccc(N=Nc2ccccc2)cc1)c1ccc(Cl)cc1Cl
AC50 [11]: 39.8 µM (inconclusive) | AC50 [6]: inconclusive

CCN(CC)S(=O)(=O)c1ccc(C(=O)NCc2ccc3c(c2)cc(C)n3C)cc1
EC50 [8]: 15.3 µM (not active) | EC50 [9]: 6.6 µM (active) | EC50 [10]: 6.71 µM (active) | IC50 [12]: > 66 µM (inactive) | IC50 [13]: > 66 µM (inactive)

Cc1c(Br)cc(C(=O)NC2CCCCC2)c(C)c1C
AC50 [6]: inconclusive | AC50 [14]: 3.55 µM (inconclusive)

CCSC1=NC(=O)/C(=C2/C=Cc3ccccc3N2CC)S1
IC50 [15]: 9.25 µM (active)

O=C(COC(=O)CCc1ccccc1)NC12CC3CC(CC(C3)C1)C2
IC50 [1]: 19.6 µM (not active)

Cc1cccc(C)c1OCC(=O)NNC(=S)NC(=O)C1CC1
EC50 [16]: 0.412 µM (active) | AC50 [3]: 1.15 µM (active) | EC50 [17]: 1.66 µM (active) | EC50 [18]: 7.38 µM (active) | EC50 [19]: > 160 µM (inactive)

CC1=CC=CN2CC(O)CN=C12.Cl (stereo unspecified)
AC50 [6]: inconclusive

COCCCn1c(=S)[nH]c2sc3c(c2c1=O)CCCS3
EC50 [8]: > 79.4 µM (not active) | EC50 [9]: 66.8 µM (inactive) | EC50 [10]: 26.7 µM (not active)

O=C(C[n+]1ccccc1)NN=Cc1cc(Br)ccc1O
IC50 [15]: 2.96 µM (active)

O=C(Cc1ccccc1)Nc1nnc(-c2ccco2)s1
EC50 [8]: > 79.4 µM (not active) | EC50 [9]: > 79.4 µM (inactive) | EC50 [10]: > 79.4 µM (not active)

COC(=O)c1ccc(N2C(=O)C3CC(C)=C(C)CC3C2=O)cc1 (stereo unspecified)
IC50 [1]: 10.9 µM (not active)

COc1ccc(C2=NN(C(=N)S)C(c3ccccc3)C2)cc1 (stereo unspecified)
EC50 [8]: > 79.4 µM (not active) | EC50 [9]: 8.24 µM (active) | EC50 [10]: 8.07 µM (active)

O=C/C(=N\Nc1ccccc1)C(=O)c1ccc(Cl)cc1
AC50 [3]: 3.15 µM (active)
